Source: US20200031866A1, “PEPTIDE INHIBITORS OF SODIUM CHANNELS” (SPYRYX BIOSCIENCES, INC., priority 2016, published 2020)
Read-outs that look alike come from different tables or passages of the source. Square brackets hold non-standard residues; d marks the D form. Peptide text beside a SMILES is read from it.

Experiments:
[1] = target: T1, alpha-ENaC (Homo sapiens, UniProt P37088+P51168+P51170); test: Internalization of alpha-ENaC in HEK293T cells, GFP-tagged alpha-ENaC co-expressed with beta and gamma ENaC; assay type: cell-based; conditions: beta-ENaC co-expressed, FIGS. 5A-5U
T1 construct: expressed in transfected cells; host or cells: HEK293T
T1 sequence (P37088 1-669): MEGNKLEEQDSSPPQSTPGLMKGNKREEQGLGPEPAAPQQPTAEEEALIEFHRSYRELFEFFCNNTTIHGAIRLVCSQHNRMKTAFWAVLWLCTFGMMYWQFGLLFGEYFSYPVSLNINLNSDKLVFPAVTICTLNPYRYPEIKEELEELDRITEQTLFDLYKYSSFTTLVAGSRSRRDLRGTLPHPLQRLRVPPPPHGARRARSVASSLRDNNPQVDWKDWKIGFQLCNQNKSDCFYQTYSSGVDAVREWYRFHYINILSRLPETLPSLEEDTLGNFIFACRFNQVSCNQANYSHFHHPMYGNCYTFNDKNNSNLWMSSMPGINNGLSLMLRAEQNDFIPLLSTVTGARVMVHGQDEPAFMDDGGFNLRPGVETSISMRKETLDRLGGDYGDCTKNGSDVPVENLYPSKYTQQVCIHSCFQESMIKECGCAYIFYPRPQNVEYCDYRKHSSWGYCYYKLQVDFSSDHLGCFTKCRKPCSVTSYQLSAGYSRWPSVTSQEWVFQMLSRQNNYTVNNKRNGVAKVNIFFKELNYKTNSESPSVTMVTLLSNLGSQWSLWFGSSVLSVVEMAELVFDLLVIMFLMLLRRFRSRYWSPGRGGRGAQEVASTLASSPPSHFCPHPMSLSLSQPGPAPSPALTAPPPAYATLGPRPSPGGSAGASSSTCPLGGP
T1 sequence (P51168 1-640): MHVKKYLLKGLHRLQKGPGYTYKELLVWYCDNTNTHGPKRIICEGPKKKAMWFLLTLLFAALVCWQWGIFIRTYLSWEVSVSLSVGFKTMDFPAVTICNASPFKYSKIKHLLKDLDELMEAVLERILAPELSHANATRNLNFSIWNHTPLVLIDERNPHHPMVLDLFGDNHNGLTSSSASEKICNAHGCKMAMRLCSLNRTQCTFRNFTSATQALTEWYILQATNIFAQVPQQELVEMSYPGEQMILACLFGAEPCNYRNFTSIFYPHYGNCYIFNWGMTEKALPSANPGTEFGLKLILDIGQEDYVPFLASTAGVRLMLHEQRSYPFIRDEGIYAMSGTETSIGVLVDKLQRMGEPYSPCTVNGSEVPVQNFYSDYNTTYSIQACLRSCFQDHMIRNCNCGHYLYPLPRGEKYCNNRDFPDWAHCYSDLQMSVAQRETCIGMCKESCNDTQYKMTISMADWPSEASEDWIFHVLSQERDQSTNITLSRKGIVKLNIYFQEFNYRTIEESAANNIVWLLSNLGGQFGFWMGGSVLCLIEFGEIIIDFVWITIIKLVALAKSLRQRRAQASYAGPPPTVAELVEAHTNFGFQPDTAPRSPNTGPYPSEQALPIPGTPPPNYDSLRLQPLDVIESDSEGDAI
T1 sequence (P51170 1-649): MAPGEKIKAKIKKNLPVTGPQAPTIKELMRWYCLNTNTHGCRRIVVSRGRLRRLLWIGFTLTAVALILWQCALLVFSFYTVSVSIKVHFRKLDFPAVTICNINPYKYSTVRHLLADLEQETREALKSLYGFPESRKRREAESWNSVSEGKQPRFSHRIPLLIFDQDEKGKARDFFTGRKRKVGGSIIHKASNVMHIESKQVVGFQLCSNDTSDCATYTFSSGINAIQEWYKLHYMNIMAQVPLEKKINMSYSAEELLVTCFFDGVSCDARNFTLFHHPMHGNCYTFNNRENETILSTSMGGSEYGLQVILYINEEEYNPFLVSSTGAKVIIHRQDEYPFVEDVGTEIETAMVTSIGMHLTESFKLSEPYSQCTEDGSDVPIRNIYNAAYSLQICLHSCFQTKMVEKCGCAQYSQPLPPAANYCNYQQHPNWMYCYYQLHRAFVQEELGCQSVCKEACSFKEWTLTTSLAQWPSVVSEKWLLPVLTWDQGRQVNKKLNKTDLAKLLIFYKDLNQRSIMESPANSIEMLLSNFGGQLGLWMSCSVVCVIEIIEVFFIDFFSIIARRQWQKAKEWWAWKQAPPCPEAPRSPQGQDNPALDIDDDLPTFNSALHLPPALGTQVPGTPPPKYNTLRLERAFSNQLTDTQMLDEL
Source text: HEK293T cells were transfected with gfp-αENaC where gfp was fused at the N-terminus of ENaC and unlabeled βENaC and γENaC using lipofectamine in 384 well plates as per the manufacturer's instructions and as published previously (see, e.g., Hobbs et al. Am J Physiol Lung Cell Mol Physiol. 2013 December; 305(12):L990-L1001. doi: 10.1152/ajplung.00103.2013. Epub 2013 October; Garland et al. Proc Natl Acad Sci USA. 2013 Oct. 1; 110(40):15973-8. doi: 10.1073/pnas.1311999110. Epub 2013 Sep. 16.; Tan et al. J Physiol. 2014 Dec. 1; 592(Pt 23):5251-68). Twenty-four hours later, peptide or vehicle control were added at t=0 and fluorescence was read using a Tecan M1000 plate reader 3 h later. Fluorescence was read at 488 nm (excitation)/510 nm (emission).

[2] = tested on: βENaC-Tg mice; assay type: in vivo
Source text: Like CF patients, βENaC-Tg mice are disease free at birth, but soon develop obstructive lung disease (Zhou, Z., et al. Am J Respir Crit Care Med 178, 1245-1256 (2008)). C57BL:FVB and C57BL:C3H mixed strains have 90% and 50% mortality, respectively, and the reproducibility of the disease on these backgrounds is sufficiently high that reliable data are produced with n of about 8-10 animals/group. Furthermore, the βENaC-Tg mouse responds to therapeutic interventions in a fashion similar to CF/COPD in humans, and the development of lung disease can be prevented following inhibition of lung disease at birth (Livraghi, A., et al. J Immunol 182, 4357-4367 (2009)). S18-derived peptides or vehicle were dosed one to three times a day by intranasal instillation (1 μl/g body weight) for 14 days in parallel cohorts of mice. Mice were weighed daily and, if a diuretic effect was found, the volume excreted was replaced by sub-cutaneous injections of sterile saline. At the end of the treatment, mice were sacrificed for phenotypic analysis.

`CC[C@H](C)[C@H](NC(=O)[C@@H]1CCCN1C(=O)[C@H](CC(C)C)NC(=O)[C@@H](C)NC(=O)[C@@H](C)N)C(=O)N1CCC[C@H]1C(=O)N[C@@H](CC(C)C)C(=O)N[C@@H](CC(=O)O)C(=O)N[C@@H](CCC(N)=O)C(=O)N[C@H](C(=O)N[C@H](C)C(=O)N[C@H](C)C(N)=O)[C@@H](C)O` [SEQ ID NO:128, aaLPIPLDQTaa] (H-[dA][dA]LPIPLDQT[dA][dA]-NH2) was tested. Which “reduction of alpha-ENaC / functional receptor on the cell surface” value [1] did it give?
The value was “effective in reducing alpha-ENaC”.

And the percent survival ([2]; βENaC-Tg C57BL:C3H mice, fourteen-day treatment, FIGS. 7C, 7D, 7F)?
The percent survival was “increased percent survival”.

And the percent survival ([2]; βENaC-Tg C57BL:C3H mice, once daily dosing, FIG. 7E left panel)?
Its percent survival is “increased percent survival”.

What about the percent survival ([2]; βENaC-Tg C57BL:FVB mice, fourteen-day inhaled treatment, FIG. 7B) of the same compound?
The percent survival was “more effective than inhaled SEQ ID NO:142 at increasing percent survival”.
